SMILES strings stand for the structures.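 Compound exposure: 48 hours, 5 concentrations, 96-well plates. The concentration for 50% growth inhibition is given as GI50. TGI denotes the concentration required for complete inhibition of growth.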 A value given as a limit tells only on which side of the number the result lay.

Some test systems named below: A549 NSCLC; HOP-92 NSCLC; IGROV1 ovarian; LOX IMVI melanoma; M14 melanoma; OVCAR-8 ovarian; RXF 393 renal; SK-MEL-2 melanoma; MDA-MB-435; HS 578T breast.
Common to all, as to assay: DTP human tumour cell line panel, 48 h

With `CCC[CH2][Sn]([CH2]CCC)([O]C(=O)c1cc(OC)c(OC)cc1OC)[O][Sn]([CH2]CCC)([CH2]CCC)[O]C(=O)c1cc(OC)c(OC)cc1OC`, the GI50 in the assay on A549 NSCLC was 1.67 µM; with HOP-92 NSCLC, 0.206 µM; with IGROV1 ovarian it was 1.17 µM; with LOX IMVI melanoma it was 0.257 µM; in the assay with M14 melanoma, 0.282 µM; with OVCAR-8 ovarian, 0.583 µM. Also, the figures for the GI50 in the assay on RXF 393 renal and in the assay with SK-MEL-2 melanoma were 0.151 µM and 0.173 µM, respectively. In addition, the TGI in the assay on A549 NSCLC came out at 3.5 µM; in the assay with HOP-92 NSCLC, 0.564 µM; with IGROV1 ovarian it was 2.68 µM; in the assay with LOX IMVI melanoma it was 0.782 µM; with M14 melanoma it was 0.797 µM; in the assay with OVCAR-8 ovarian it was 1.89 µM. Besides, the TGI with RXF 393 renal came to 0.304 µM; in the assay with SK-MEL-2 melanoma, 0.824 µM.
As to `C/C(CC(=O)NCCc1ccccc1)=N\NS(=O)(=O)c1ccc(C)cc1`, the concentration for total growth inhibition (TGI) in the assay on A549 NSCLC, in the assay on HOP-92 NSCLC, in the assay on IGROV1 ovarian, with LOX IMVI melanoma, with M14 melanoma and with OVCAR-8 ovarian was more than 100 µM throughout. Also, the TGI in the assay on RXF 393 renal and with SK-MEL-2 melanoma was more than 100 µM throughout.
Regarding `O=C(/C=C(\O)C(=O)O)/C=C(\O)c1ccccc1`, the GI50 in the assay on A549 NSCLC, in the assay with HOP-92 NSCLC, in the assay with IGROV1 ovarian, in the assay on LOX IMVI melanoma, in the assay on M14 melanoma and with SK-MEL-2 melanoma was more than 1 µM throughout. Also, the TGI in the assay with A549 NSCLC was more than 100 µM; with HOP-92 NSCLC it was more than 1 µM; with IGROV1 ovarian, more than 100 µM; with LOX IMVI melanoma, more than 100 µM; with M14 melanoma, more than 100 µM; in the assay on OVCAR-8 ovarian, more than 100 µM. Moreover, the TGI in the assay on RXF 393 renal and with SK-MEL-2 melanoma was more than 100 µM each time.
Take `COc1ccc2c(c1)[n+](=O)c(C(=O)c1cccs1)c(C(F)(F)F)n2[O-]`: the GI50 is 7.99 µM with A549 NSCLC; 7.91 µM in the assay on HOP-92 NSCLC; 2.09 µM in the assay on LOX IMVI melanoma; 10.9 µM with M14 melanoma; 12.2 µM in the assay with MDA-MB-435; 2.79 µM with OVCAR-8 ovarian. In addition, the GI50 in the assay on RXF 393 renal was more than 50 µM; in the assay on SK-MEL-2 melanoma it was 10.8 µM. The TGI in the assay with A549 NSCLC was more than 50 µM; in the assay on HOP-92 NSCLC, 49.5 µM; in the assay on LOX IMVI melanoma, 12.7 µM; with M14 melanoma, more than 50 µM; with MDA-MB-435, more than 50 µM; in the assay on OVCAR-8 ovarian it was more than 50 µM. For the same compound, the TGI with RXF 393 renal and with SK-MEL-2 melanoma was more than 50 µM in each case.
`O=c1cc(-c2ccccn2)[nH]c2cccc(F)c12`: the TGI with A549 NSCLC, in the assay with HOP-92 NSCLC, in the assay on IGROV1 ovarian, with LOX IMVI melanoma, with M14 melanoma and in the assay on OVCAR-8 ovarian was more than 100 µM each time. The compound further registered a TGI in the assay on RXF 393 renal of more than 100 µM.
`Cc1cc2c(c(C(N)=O)c1C)-c1cccc(F)c1C2=O`: the TGI in the assay with A549 NSCLC, with HOP-92 NSCLC, with IGROV1 ovarian, with LOX IMVI melanoma, with M14 melanoma and with OVCAR-8 ovarian was more than 100 µM throughout. In the assay on SK-MEL-2 melanoma, the TGI was more than 100 µM.
For the compound `COc1ccccc1N=Nc1c(-c2ccccc2)nn(C(=O)CC(=O)Nc2cccc(C)c2)c1-c1ccccc1`, the TGI in the assay with A549 NSCLC, in the assay on IGROV1 ovarian, in the assay on LOX IMVI melanoma, in the assay on M14 melanoma, in the assay with OVCAR-8 ovarian and with RXF 393 renal was more than 100 µM in each case.
For the compound `[N-]=[N+]=NC(c1cn(C2CC(O)C(CO)O2)c(=O)[nH]c1=O)C(Cl)Br` (stereo not given), the TGI with A549 NSCLC, with HOP-92 NSCLC, in the assay with LOX IMVI melanoma, in the assay with OVCAR-8 ovarian, with RXF 393 renal and in the assay on SK-MEL-2 melanoma was more than 100 µM in each case.
Regarding `O=c1cccccc1[O-].O=c1cccccc1[O-].O=c1cccccc1[O-].[Eu+3]`, the TGI was more than 100 µM in the assay with A549 NSCLC; more than 100 µM in the assay with HOP-92 NSCLC; more than 100 µM in the assay with IGROV1 ovarian; more than 100 µM with LOX IMVI melanoma; more than 100 µM in the assay with M14 melanoma; 63.8 µM with OVCAR-8 ovarian. The TGI in the assay on RXF 393 renal was 73.9 µM; in the assay on SK-MEL-2 melanoma, more than 100 µM.
Turning to `Cc1cn2c(/C=C3/C(=O)Nc4c3ccc3ccccc43)c(C(F)(F)F)nc2s1`, the GI50 in the assay on A549 NSCLC is 1.18 µM; in the assay on HOP-92 NSCLC, 5.1 µM; in the assay with HS 578T breast, 3 µM; in the assay with LOX IMVI melanoma it was 1.07 µM; with M14 melanoma, 0.526 µM; with OVCAR-8 ovarian, 4.65 µM. Moreover, the GI50 with RXF 393 renal was 2.24 µM; with SK-MEL-2 melanoma, 1.06 µM. The total growth inhibition concentration (TGI) was more than 100 µM with A549 NSCLC; 98.7 µM in the assay on HOP-92 NSCLC; 78.7 µM with HS 578T breast; 21.1 µM with LOX IMVI melanoma; 11.7 µM in the assay with M14 melanoma; more than 100 µM in the assay on OVCAR-8 ovarian. Moreover, the TGI is 8.35 µM in the assay on RXF 393 renal and more than 100 µM in the assay on SK-MEL-2 melanoma.
On to `C/C(=C\c1ccn(-c2ccccc2N)n1)[C@@H]1C[C@@H]2O[C@]2(C)CCC[C@H](C)[C@H](O)[C@@H](C)C(=O)C(C)(C)[C@@H](O)CC(=O)O1`, for which the concentration for 50% growth inhibition (GI50) is 0.0372 µM in the assay on A549 NSCLC; 0.146 µM with HOP-92 NSCLC; 0.0658 µM with HS 578T breast; 0.247 µM with IGROV1 ovarian; 0.0331 µM in the assay with LOX IMVI melanoma; 0.0617 µM in the assay with OVCAR-8 ovarian. Besides, the GI50 in the assay on RXF 393 renal is 0.0526 µM; in the assay with SK-MEL-2 melanoma, 0.0819 µM. The concentration for total growth inhibition (TGI) in the assay with A549 NSCLC was more than 50 µM; with HOP-92 NSCLC, more than 50 µM; with HS 578T breast, 10 µM; in the assay on IGROV1 ovarian, more than 50 µM; in the assay with LOX IMVI melanoma, more than 50 µM; in the assay with OVCAR-8 ovarian, more than 50 µM. The TGI is 0.604 µM in the assay on RXF 393 renal and more than 50 µM with SK-MEL-2 melanoma.

Values taken from PubChem BioAssay (NCI).
